This assay concerns the target melatonin receptor. The assay is described as follows: Action of inhibiting 2-[^125 I]iodomelatonin binding. Set-up: species or system chicken (white leghorn). As to conditions: forebrain membranes of 7-day-old chickens; 80 pM 2-[^125 I]iodomelatonin; 90 minutes at 25° C., pH 7.7; read-out: IC50, inhibition of 2-[^125 I]iodomelatonin binding. The method, then:
The forebrains of 7-day-old chickens (white leghorn) were homogenized with ice-cooled assay-buffer (50 mM Tris-HCl, pH 7.7, at 25° C.) and centrifuged at 44,000×g for 10 minutes to give pellet. The pellet was washed once with the same buffer solution, which was further homogenized with the assay-buffer to make a protein concentration of 0.3-0.4 mg/mL. The homogenate was used as a membrane sample. In a test tube, the membrane sample and a ligand (80 pM 2-[^125 I]iodomelatonin,ca. 100,000 dpm) were mixed to make the whole volume 0.5 mL. The mixture was incubated for 90 minutes at 25° C., to which was added 3 mL of ice-cooled assay buffer, immediately followed vacuum filtration on Whatman GF/B which was further washed twice with 3 mL each of ice-cold assay buffer. The radioactivity on the filter was determined by means of gamma-counter. Specific binding was calculated by subtracting the non-specific binding which was determined in the presence of 10 μM melatonin. The 50% inhibiting concentration (IC50) was determined by the log-probit analysis.

Broadly, the IC50 is the point on the concentration scale where inhibition reaches its midpoint. For the molecule `COc1ccc2c(c1)C(CCNC(=O)C(F)(F)F)=C(c1ccccc1)C2` [Working Example 1, 2,2,2-Trifluoro-N-[2-(5-methoxy-2-phenyl-1H-inden-3-yl)ethyl]acetamide], the half-inhibitory concentration (IC50) turned out to be 0.087 nM.

(Values after patent US5922771A, “Benzocycloalkene compounds, their production and use” (Takeda Chemical Industries, Ltd., priority 1995, dated 1999).)
